Experimental data: patent publication US9034922B2, “Composition for maintaining function of platelets” (THE UNIVERSITY OF TOKYO, priority 2010, dated 2015)

Legend:
[1] = target: T1, Matrix metalloproteinase 3 (MMP-3) (Homo sapiens, UniProt P08254); assay: Enzyme inhibition experiment, MMP-3; type: biochemical; details: 3168 substrate, 37° C., 4 hours
T1 construct: purchased Calbiochem 444217
Description: Matrix metalloproteinase 3 (MMP-3) (manufactured by Calbiochem, product number: 444217)
3168 substrate (MOCAc-Arg-Pro-Lys-Pro-Val-Glu-Nva-Trp-Arg-Lys(Dnp)-NH2, manufactured by Peptide Institute, Inc.): excitation wavelength at 320 nm, emission wavelength at 405 nm, and 3163 substrate (MOCAc-Pro-Leu-Gly-Leu-A2pr(Dnp)-Ala-Arg-NH2, manufactured by Peptide Institute, Inc.): excitation wavelength at 320 nm, emission wavelength at 405 nm.
(§1) The enzyme reaction was carried out using the enzymes and substrates. Specifically, if necessary, the enzyme was activated in advance with APMA (final concentration 1 mmol/L, p-aminophenylmercuric acetate, manufactured by Sigma-Aldrich Co., A9563) according to information from the manufacturer. Then, in a 96-well plate for fluorescence measurement, 90 μL of an enzyme solution prepared with Assay Buffer A (50 mmol/L Tris-HCl buffer (pH 7.5) containing 200 mmol/L sodium chloride, 5 mmol/L calcium chloride, 10 μmol/L zinc sulfate, and 2 mg/mL bovine serum albumin) was mixed with 90 μL of the substrate adjusted to be 20 μmol/L with Assay Buffer B (50 mmol/L Tris-HCl buffer (pH 7.5) containing 200 mmol/L sodium chloride, 5 mmol/L calcium chloride, 10 μmol/L zinc sulfate, and 0.05% PLURONIC F-68), and incubated for reaction at 25° C. or 37° C. for several hours. Moreover, the fluorescence intensities before and after the reaction were measured using a fluorometer to determine the enzyme activity. An inhibition rate was obtained based on the enzyme activities in the presence and absence of the test substances, and the 50% inhibitory concentration (IC50) was calculated.

ADAM17 = target: T2, ADAM17 (Homo sapiens, UniProt P78536); assay: ADAM17 inhibition experiment (fluorescent synthetic substrate); type: biochemical; details: from Table 3
T2 construct: made in house; host or cells: mammalian cells or insect cells
Description: The cDNA was incorporated into an expression vector. Then, this vector was transfected into mammalian cells or insect cells, and ADAM17 was expressed and obtained.
Next, the activity of ADAM17 was measured, as follows in the presence or absence of the test substances, in which obtained ADAM17 was used as an enzyme, and a fluorescent synthetic substrate Nma (N-methyl anthranilate)-[…]Dnp (dinitrophenyl)-D-Arg-NH2 containing an ADAM17-cleavage sequence of membrane-bound TNF was used as a substrate.
Specifically, 90 μL of 14 units of an enzyme solution (1 unit is defined as an amount of enzyme degrading […] of the substrate in 1 minute at 25° C.) prepared with Assay Buffer A (50 mmol/L Tris-HCl buffer (pH 7.5) containing 200 mmol/L sodium chloride, 5 mmol/L calcium chloride, 10 μmol/L zinc sulfate, and 2 mg/mL bovine serum albumin) was mixed with 90 μL of the fluorescent synthetic substrate adjusted to be 20 μmol/L with Assay Buffer B (50 mmol/L Tris-HCl buffer (pH 7.5) containing 200 mmol/L sodium chloride, 5 mmol/L calcium chloride, 10 μmol/L zinc sulfate, and 0.05% PLURONIC F-68), and allowed for reaction at 37° C. for 1.5 hours. Thereafter, the enzyme activity was determined by measurement using a fluorometer (Fluoroskan Ascent) under conditions of an excitation wavelength of 355 nm and a measurement wavelength of 460 nm. Then, an inhibition rate was obtained based on the enzyme activities in the presence and absence of the test compounds, and the 50% inhibitory concentration (IC50) was calculated.
A disintegrin and metalloproteinase 17 (ADAM17, TACE) (used was one prepared at Kaken Pharmaceutical Co., Ltd. by employing the genetic recombination in the same way as in Test Example 3. Note that, the same as in Test Example 3, 1 unit is defined as an amount of enzyme degrading 1 pmol of substrate in 1 minute at 25° C.)
TACE substrate (the same as one used in Test Example 3): excitation wavelength at 355 nm, emission wavelength at 460 nm
as §1

[2] = test system: human peripheral blood-derived platelets (ADAM17-mediated GPIbα shedding); assay: Function-maintaining effect on human peripheral blood-derived washed platelets with CCCP (flow cytometry CD41/CD42b); type: cell-based; details: Test Example 13; 100 μM CCCP, 37° C., 24 hours; S-45457 50 μM, S-45282 5 μM, p38 inhibitors 40 μM
Description: Specifically, according to <Protocol 2> illustrated in FIG. 6, first, ACD was added to human peripheral blood obtained by collecting blood at a ratio of 1:10, and centrifuged at 900 rpm for 10 minutes without a break. The supernatant obtained by the centrifugation was further centrifuged at 1500 rpm for 10 minutes without a break, and then the supernatant was removed. The precipitate thus obtained was suspended in a Tyrode-HEPES buffer (not containing calcium). The number of platelets in the suspension was counted, and the suspension (Washed Platelet) was adjusted to contain 5×10^7 to 1×10^8 of platelets/200 μL of the Tyrode-HEPES buffer (not containing calcium). […] After incubation at 37° C. for 24 hours, the numbers of CD41(+)CD42b(+) and CD41(+)CD42b(−) were counted by flow cytometry.
After incubation at 37° C. for 24 hours, a dot plot analysis on CD41(+) and CD42b(+) was conducted by flow cytometry.
After incubation at 37° C. for 24 hours and flow cytometry analysis, a percentage of CD41(+)CD42b(+) in the platelets was calculated.
After incubation at 37° C. for 24 hours, a total number of platelets and the number of CD42b(+) were counted by flow cytometry, and percentage of CD42b(+) in the platelets was calculated.
After incubation at 37° C. for 24 hours, by flow cytometry, a dot plot analysis on CD41(+) and CD42b(+) was conducted.

[3] = target: T3, TACE expressed on the macrophage-like cells (THP-1) (Homo sapiens, UniProt P78536); assay: Cellular TACE inhibition experiment (LPS-induced TNF-α production in PMA-differentiated THP-1 cells); type: cell-based; details: for IC50: THP-1 macrophage-like cells, LPS 1 μg/mL, 6 hours, read-out: IC50 TNFα production
T3 construct: host or cells: THP-1 cells differentiated with PMA into macrophage-like cells
Description: After the differentiation, the medium was discarded, and the cells were washed with THP-1 washing buffer (RPMI 1640, 20 mM HEPES-NaOH (pH 7.4)). After the washing of the cells, a THP-1 assay buffer (RPMI 1640, 20 mmol/L HEPES-NaOH (pH 7.4), 0.01 w/v % PF-68, 10 v/v % FBS) was added thereto at 100 μL/well. Then, a THP-1 assay buffer containing the test substance (I-1 or 1-4) was further added at 50 μL/well and mixed by tapping. After incubation in a CO2 incubator for 30 to 45 minutes, a THP-1 assay buffer containing LPS was added at 50 μL/well (the final concentration of LPS was 1 μg/mL). Further, the plate was tapped for mixing, followed by incubation in the CO2 incubator for 6 hours. After the incubation was finished, human TNF-α concentration in the culture supernatant was measured with a commercially available kit (Human TNF-α CytoSet (manufactured by BIOSOURCE) or Human TNF-α Ready-Set-Go! (manufactured by eBioscience, Inc.)).

T3 sequence (P78536 215-824): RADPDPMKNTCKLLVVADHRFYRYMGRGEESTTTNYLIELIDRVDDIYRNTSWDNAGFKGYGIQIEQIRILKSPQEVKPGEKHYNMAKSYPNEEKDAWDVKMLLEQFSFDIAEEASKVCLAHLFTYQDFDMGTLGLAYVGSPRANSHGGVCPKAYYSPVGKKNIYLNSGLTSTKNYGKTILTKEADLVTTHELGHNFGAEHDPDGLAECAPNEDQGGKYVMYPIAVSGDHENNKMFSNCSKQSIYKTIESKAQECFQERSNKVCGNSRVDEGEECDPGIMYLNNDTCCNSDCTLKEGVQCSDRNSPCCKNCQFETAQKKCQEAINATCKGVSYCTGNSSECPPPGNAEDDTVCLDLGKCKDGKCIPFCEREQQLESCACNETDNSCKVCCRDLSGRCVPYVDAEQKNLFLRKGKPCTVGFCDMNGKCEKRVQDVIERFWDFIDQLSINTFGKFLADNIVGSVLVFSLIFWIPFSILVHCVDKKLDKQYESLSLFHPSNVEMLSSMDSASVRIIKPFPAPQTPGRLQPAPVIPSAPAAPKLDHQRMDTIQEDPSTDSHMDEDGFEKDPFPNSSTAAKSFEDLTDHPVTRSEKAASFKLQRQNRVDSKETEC
T2 sequence (P78536 215-824): as above
T1 sequence (P08254 100-272 limits assumed): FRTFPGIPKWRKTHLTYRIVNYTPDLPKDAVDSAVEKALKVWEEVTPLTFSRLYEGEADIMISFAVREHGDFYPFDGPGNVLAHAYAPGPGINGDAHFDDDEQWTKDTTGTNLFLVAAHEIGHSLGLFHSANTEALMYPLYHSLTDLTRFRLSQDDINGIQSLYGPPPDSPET

Question: `CC#CCOc1ccc(S(=O)(=O)CC(c2ccc(CN(CC)CC)cc2)N(O)C=O)cc1` (stereo not shown) [Compound I-1, N-[2-(4-But-2-ynyloxybenzenesulfonyl)-1-(4-diethylaminomethylphenyl)ethyl]-N-hydroxyformamide] was tested. Which IC50 [1] did it give?
Answer: 8.3 µM

Question: And the “specificity to ADAM17 in comparison with metalloproteinases other than ADAM17” value (ADAM17)?
Answer: high specificity to ADAM17

Question: What about the “function-maintaining effect on human peripheral blood-derived platelets (dot plot CD41/CD42b)” value [2] of the same compound?
Answer: strong function-maintaining effect on human peripheral blood-derived platelets but not as strong as S-45457

Question: And the “inhibitory activity on TACE expressed on the macrophage-like cells (in words)” value [3]?
Answer: inhibitory activity was confirmed

Question: What about the IC50 [3] of the same compound?
Answer: 1.2 µM

Question: Which results are given for `CC#CCOc1ccc(S(=O)(=O)CC(c2ccc(CNS(C)(=O)=O)cc2)N(O)C=O)cc1` (stereo not shown) [Compound I-4, N-{4-[2-(4-But-2-ynyloxybenzenesulfonyl)-1-(formylhydroxyamino)ethyl]benzyl}methanesulfonamide]?
Answer: IC50 [1]: 6.5 µM; specificity to ADAM17 in comparison with metalloproteinases other than ADAM17 (ADAM17): high specificity to ADAM17; function-maintaining effect on human peripheral blood-derived platelets (dot plot CD41/CD42b) [2]: suppresses ADAM17-mediated GPIbα (CD42b) shedding; inhibitory activity on TACE expressed on the macrophage-like cells (in words) [3]: inhibitory activity was confirmed; IC50 [3]: 0.625 µM
